Results: ChEMBL document CHEMBL5696439 (Cancer Res, 2010)
Activity calls are given as the source filed them. The rule behind the calls is not given here.

How the values were obtained:
[1] = biological target: Receptor-type tyrosine-protein kinase FLT3 (Homo sapiens) (UniProt P36888); assay: Inhibition of recombinant human His-tagged FLT3 (564-958 residues) expressed in insect cells at 2 uM using Tyr 02 as substrate measured after 1 hr by Z'-LYTE assay relative to control; conditions: Insect cell
[2] = tested on: Epidermal growth factor receptor (Homo sapiens), P00533 [L858R]; assay: Inhibition of recombinant human GST-tagged EGFR L858R mutant (668-1210 residues) expressed in insect cells at 2 uM using Tyr 04 as substrate measured after 1 hr by Z'-LYTE assay relative to control; conditions: Insect cell
MDA-MB-361 [3] = assay: Antitumor activity against human MDA-MB-361 cells assessed as block the hypoxia-induced lactate production in low oxygen at 0.3 micromol/L incubated for 24 hrs; assay type: functional, cell-based; conditions: dose 0.3 µmol/L
[4] = biological target: Protein kinase C iota type (Homo sapiens) (UniProt P41743); assay: Inhibition of recombinant human full length His-tagged PRKCI expressed in baculovirus expression system at 2 uM using Ser/Thr 07 as substrate measured after 1 hr by Z'-LYTE assay relative to control
[5] = biological target: MAP kinase-activated protein kinase 2 (Homo sapiens) (UniProt P49137); assay: Inhibition of recombinant human full length His-tagged MAPKAPK2 expressed in E. coli at 2 uM using Ser/Thr 04 as substrate measured after 1 hr by Z'-LYTE assay relative to control
[6] = biological target: Macrophage-stimulating protein receptor (Homo sapiens) (UniProt Q04912); assay: Inhibition of recombinant human GST-tagged MST1R (983-1400 residues) expressed in insect cells at 2 uM using Tyr 06 as substrate measured after 1 hr by Z'-LYTE assay relative to control; conditions: Insect cell
[7] = biological target: Serine/threonine-protein kinase ATR (Homo sapiens, UniProt Q13535); assay: Inhibition of ATR (unknown origin) using glutathione S-transferase-p53 as substrate by DELFIA
Serine/threonine-protein kinase ATR, sequence (Q13535 whole entry, the tested form may be a part): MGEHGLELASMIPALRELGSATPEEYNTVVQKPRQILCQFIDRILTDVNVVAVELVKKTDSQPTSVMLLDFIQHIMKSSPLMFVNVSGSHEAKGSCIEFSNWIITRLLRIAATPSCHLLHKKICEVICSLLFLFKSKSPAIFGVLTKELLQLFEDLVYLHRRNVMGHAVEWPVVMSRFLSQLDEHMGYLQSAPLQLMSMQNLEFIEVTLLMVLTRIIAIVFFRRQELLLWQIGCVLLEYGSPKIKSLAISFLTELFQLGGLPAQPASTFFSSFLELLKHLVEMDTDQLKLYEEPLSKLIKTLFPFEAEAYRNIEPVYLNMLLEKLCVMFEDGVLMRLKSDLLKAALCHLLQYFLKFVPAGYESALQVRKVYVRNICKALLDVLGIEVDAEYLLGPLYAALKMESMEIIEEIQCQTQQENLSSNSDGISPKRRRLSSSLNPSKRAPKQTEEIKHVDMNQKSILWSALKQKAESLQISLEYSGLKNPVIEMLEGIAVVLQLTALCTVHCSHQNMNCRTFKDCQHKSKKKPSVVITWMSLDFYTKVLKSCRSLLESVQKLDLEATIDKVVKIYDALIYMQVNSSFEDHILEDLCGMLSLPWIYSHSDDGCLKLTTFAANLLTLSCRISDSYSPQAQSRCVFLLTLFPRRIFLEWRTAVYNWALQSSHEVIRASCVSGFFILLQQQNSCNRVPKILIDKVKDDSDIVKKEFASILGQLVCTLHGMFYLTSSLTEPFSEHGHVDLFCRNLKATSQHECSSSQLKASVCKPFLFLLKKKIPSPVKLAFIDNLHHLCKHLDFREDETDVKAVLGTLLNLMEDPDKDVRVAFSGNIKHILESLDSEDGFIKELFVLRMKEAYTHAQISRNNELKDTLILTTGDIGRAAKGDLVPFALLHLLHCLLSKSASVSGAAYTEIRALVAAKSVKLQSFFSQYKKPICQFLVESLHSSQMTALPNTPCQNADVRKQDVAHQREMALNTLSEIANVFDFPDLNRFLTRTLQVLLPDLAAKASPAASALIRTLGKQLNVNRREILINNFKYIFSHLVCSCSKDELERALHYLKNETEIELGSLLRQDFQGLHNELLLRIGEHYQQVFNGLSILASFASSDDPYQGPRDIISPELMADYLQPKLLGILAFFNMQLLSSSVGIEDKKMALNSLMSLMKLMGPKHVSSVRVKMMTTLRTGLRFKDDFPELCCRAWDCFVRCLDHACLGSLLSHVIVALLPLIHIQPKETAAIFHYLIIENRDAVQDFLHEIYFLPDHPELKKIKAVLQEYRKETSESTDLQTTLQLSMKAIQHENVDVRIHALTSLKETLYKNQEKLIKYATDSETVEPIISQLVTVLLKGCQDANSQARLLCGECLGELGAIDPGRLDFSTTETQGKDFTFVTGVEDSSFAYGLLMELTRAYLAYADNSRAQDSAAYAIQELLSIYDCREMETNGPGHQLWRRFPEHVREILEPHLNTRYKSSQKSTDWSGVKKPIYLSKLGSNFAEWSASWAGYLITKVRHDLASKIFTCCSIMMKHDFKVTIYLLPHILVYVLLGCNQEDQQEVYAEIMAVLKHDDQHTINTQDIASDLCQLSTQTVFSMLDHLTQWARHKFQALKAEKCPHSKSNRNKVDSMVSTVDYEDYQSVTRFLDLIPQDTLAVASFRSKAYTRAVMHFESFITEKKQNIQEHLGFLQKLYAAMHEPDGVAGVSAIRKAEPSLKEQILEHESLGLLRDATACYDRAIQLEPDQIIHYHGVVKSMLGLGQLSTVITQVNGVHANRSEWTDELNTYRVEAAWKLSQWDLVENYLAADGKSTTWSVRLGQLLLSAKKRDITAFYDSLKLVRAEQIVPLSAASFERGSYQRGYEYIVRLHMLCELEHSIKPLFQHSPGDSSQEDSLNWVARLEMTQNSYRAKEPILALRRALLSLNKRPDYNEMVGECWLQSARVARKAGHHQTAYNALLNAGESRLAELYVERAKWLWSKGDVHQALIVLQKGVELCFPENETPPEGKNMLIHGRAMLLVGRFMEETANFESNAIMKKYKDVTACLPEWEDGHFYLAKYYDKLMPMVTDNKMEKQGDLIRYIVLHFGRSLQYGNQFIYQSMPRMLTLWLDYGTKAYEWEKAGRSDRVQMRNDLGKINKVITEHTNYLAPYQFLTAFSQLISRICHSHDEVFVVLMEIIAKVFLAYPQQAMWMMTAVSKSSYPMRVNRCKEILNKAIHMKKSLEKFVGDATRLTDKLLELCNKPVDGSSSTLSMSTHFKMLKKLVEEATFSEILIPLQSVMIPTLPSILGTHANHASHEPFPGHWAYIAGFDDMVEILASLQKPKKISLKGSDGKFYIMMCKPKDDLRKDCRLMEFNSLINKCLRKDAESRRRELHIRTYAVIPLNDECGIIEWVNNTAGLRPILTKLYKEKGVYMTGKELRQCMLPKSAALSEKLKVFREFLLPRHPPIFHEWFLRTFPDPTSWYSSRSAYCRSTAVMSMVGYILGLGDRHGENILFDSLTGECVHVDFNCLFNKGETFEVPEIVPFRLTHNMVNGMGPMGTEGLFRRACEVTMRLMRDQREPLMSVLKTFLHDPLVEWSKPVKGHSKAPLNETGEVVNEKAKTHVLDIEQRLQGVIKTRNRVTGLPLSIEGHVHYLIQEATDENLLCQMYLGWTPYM

[8] = biological target: Epidermal growth factor receptor (Homo sapiens) (UniProt P00533); assay: Inhibition of recombinant human GST-tagged EGFR (668-1210 residues) expressed in insect cells at 2 uM using Tyr 04 as substrate measured after 1 hr by Z'-LYTE assay relative to control; conditions: Insect cell
mTORC1 (Homo sapiens) = mTORC1 (Homo sapiens) (UniProt P42345+Q8N122+Q9BVC4); conditions: U-87 MG, dose 0.025-2 µmol/L, time 6.0 hrs
U-87 MG [9] = assay: Induction of apoptosis in human U-87MG cells assessed as reduction in S phase at 1 micromol/L incubated for 24 hrs by FACS analysis; assay type: functional, cell-based; conditions: U-87MG ATCC, dose 1.0 µmol/L
[10] = biological target: Platelet-derived growth factor receptor beta (Homo sapiens) (UniProt P09619); assay: Inhibition of recombinant human His-tagged PDGFRB (558-1106 residues) expressed in baculovirus expression system at 2 uM using Tyr 04 as substrate measured after 1 hr by Z'-LYTE assay relative to control
MDA-MB-361 [11] = assay: Antitumor activity against human MDA-MB-361 cells xenografted in female nude mouse model assessed as suppression in P-AKT at S473 level at 50 mg/kg, iv administered once a week and measured at least 8 hrs by immunoblot analysis; assay type: functional, organism-based
[12] = biological target: Serine/threonine-protein kinase 24 (Homo sapiens) (UniProt Q9Y6E0); assay: Inhibition of recombinant human full length GST-tagged STK24 expressed in insect cells at 2 uM using Ser/Thr 07 as substrate measured after 1 hr by Z'-LYTE assay relative to control; conditions: Insect cell
[13] = biological target: Mitogen-activated protein kinase 9 (Homo sapiens) (UniProt P45984); assay: Inhibition of recombinant human full length His-tagged MAPK9 expressed in baculovirus expression system at 2 uM using Ser/Thr 04 as substrate measured after 1 hr by Z'-LYTE assay relative to control
PC3MM2 = assay: Antitumor activity against human PC3MM2 cells xenografted in female nude mouse model assessed as reduction in P-AKT at T308 level at 50 mg/kg, iv administered once a week and measured at least 8 hrs by immunoblot analysis; assay type: functional, organism-based
[14] = biological target: NT-3 growth factor receptor (Homo sapiens) (UniProt Q16288); assay: Inhibition of recombinant human His-tagged NTRK3 (510-825 residues) expressed in baculovirus expression system at 2 uM using Tyr 01 as substrate measured after 1 hr by Z'-LYTE assay relative to control
[15] = biological target: Tyrosine-protein kinase receptor TYRO3 (Homo sapiens) (UniProt Q06418); assay: Inhibition of recombinant human GST-tagged TYRO3 (451-890 residues) expressed in insect cells at 2 uM using […] as substrate measured after 1 hr by Z'-LYTE assay relative to control; conditions: Insect cell
[16] = biological target: Proto-oncogene tyrosine-protein kinase Src (Homo sapiens) (UniProt P12931); assay: Inhibition of recombinant human full length SRC N1 expressed in baculovirus expression system at 2 uM using Tyr 02 as substrate measured after 1 hr by Z'-LYTE assay relative to control
[17] = biological target: Ribosomal protein S6 kinase alpha-5 (Homo sapiens) (UniProt O75582); assay: Inhibition of recombinant human full length GST-tagged RPS6KA5 expressed in insect cells at 2 uM using Ser/Thr 01 as substrate measured after 1 hr by Z'-LYTE assay relative to control; conditions: Insect cell
[18] = biological target: Ribosomal protein S6 kinase alpha-6 (Homo sapiens) (UniProt Q9UK32); assay: Inhibition of recombinant human full length GST-tagged RPS6KA6 expressed in insect cells at 2 uM using Ser/Thr 20 as substrate measured after 1 hr by Z'-LYTE assay relative to control; conditions: Insect cell
[19] = biological target: Receptor tyrosine-protein kinase erbB-2 (Homo sapiens) (UniProt P04626); assay: Inhibition of recombinant human His-tagged ERBB2 (676-1255 residues) expressed in insect cells at 2 uM using Tyr 06 as substrate measured after 1 hr by Z'-LYTE assay relative to control; conditions: Insect cell
Receptor tyrosine-protein kinase erbB-2 (Homo sapiens), sequence (P04626 whole entry, the tested form may be a part): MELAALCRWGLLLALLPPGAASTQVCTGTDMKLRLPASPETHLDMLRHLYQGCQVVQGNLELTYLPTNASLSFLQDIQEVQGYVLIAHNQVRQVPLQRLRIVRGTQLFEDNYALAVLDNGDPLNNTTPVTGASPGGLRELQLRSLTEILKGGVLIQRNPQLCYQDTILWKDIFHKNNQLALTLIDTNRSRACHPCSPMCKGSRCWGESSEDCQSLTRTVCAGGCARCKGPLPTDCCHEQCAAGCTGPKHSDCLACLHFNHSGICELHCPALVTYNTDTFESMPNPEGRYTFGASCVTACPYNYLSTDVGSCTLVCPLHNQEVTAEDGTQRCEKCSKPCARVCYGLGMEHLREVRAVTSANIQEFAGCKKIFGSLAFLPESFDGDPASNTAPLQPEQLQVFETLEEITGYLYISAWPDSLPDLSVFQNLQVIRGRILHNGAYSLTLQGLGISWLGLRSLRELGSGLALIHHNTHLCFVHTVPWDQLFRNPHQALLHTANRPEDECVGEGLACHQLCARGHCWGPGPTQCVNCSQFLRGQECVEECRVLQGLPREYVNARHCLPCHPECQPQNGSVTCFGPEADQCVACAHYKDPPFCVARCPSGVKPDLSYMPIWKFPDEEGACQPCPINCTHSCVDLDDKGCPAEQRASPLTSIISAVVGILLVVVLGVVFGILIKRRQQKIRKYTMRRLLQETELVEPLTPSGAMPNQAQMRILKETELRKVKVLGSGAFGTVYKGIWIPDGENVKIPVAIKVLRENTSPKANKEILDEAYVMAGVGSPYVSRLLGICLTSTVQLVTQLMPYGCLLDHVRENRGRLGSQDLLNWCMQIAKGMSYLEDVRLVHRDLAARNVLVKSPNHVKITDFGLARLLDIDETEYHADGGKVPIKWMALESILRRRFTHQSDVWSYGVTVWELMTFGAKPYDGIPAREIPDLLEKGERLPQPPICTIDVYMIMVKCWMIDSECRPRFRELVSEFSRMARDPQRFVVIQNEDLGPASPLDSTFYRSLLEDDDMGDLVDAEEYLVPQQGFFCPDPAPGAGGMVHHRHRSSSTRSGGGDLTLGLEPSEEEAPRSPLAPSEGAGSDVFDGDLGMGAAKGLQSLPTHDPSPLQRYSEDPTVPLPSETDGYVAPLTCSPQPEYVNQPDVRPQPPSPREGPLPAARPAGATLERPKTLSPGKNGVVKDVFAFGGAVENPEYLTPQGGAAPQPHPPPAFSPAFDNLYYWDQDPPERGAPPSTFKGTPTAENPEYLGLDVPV

MDA-MB-361 [20] = assay: Antitumor activity against human MDA-MB-361 cells xenografted in female nude mouse model assessed as suppression in P-AKT at S473 level at 50 mg/kg, po qd administered as 5 days on/2 days off regimen for 4 cycles by immunoblot analysis; assay type: functional, organism-based; conditions: time 28.0 day
U-87 MG [21] = assay: Antiproliferative activity against human U-87MG cells assessed as cell growth inhibition incubated for 24 hrs by MTS assay; assay type: functional, cell-based, U-87MG ATCC
[22] = biological target: Platelet-derived growth factor receptor alpha (Homo sapiens) (UniProt P16234); assay: Inhibition of recombinant human GST-tagged PDGFRA (550-1089 residues) expressed in baculovirus expression system at 2 uM using Tyr 04 as substrate measured after 1 hr by Z'-LYTE assay relative to control
Platelet-derived growth factor receptor alpha (Homo sapiens), sequence (P16234 whole entry, the tested form may be a part): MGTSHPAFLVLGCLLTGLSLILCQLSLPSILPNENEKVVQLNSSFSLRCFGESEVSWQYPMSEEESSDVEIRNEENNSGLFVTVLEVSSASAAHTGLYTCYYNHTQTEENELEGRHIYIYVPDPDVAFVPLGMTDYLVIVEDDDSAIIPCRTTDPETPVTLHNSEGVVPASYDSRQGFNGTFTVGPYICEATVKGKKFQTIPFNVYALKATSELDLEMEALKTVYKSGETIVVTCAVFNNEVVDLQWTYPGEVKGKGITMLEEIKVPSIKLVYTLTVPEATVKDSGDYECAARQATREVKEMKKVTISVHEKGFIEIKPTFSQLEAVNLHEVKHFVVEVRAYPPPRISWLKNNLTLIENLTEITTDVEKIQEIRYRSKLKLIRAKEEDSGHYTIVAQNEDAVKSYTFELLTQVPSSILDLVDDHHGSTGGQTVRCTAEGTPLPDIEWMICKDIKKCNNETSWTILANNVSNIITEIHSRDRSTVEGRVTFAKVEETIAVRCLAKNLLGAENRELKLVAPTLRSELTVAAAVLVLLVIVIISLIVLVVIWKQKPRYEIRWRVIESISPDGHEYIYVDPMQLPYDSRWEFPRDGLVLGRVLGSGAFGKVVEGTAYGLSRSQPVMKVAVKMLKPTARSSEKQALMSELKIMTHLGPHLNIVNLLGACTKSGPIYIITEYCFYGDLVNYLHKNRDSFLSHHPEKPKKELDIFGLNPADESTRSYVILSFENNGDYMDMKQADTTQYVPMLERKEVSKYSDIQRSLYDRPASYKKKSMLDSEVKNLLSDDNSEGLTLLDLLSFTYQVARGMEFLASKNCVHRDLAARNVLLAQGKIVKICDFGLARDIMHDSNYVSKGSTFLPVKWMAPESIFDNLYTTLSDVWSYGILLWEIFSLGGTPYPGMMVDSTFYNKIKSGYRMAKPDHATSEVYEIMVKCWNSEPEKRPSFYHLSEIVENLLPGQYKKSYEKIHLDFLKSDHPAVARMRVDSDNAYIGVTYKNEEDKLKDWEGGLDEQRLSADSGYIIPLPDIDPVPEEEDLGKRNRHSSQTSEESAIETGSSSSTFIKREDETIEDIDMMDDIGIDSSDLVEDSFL

A549 = assay: Antitumor activity against human A549 cells xenografted in female nude mouse model assessed as inhibition in tumor growth at 10 to 50 mg/kg, po qd administered as 5 days on/2 days off regimen for 4 cycles; assay type: functional, organism-based; conditions: dose 10-50 mg/kg, time 28.0 day
MDA-MB-361 [23] = assay: Antiproliferative activity against human MDA-MB-361 cells assessed as cell growth inhibition incubated for 1 days by MTS assay; assay type: functional, cell-based; conditions: MDA-MB-361, 24 h

Compound: CNC(=O)Nc1ccc(-c2nc(N3CC4CCC(C3)O4)c3cnn(C4CCC5(CC4)OCCO5)c3n2)cc1
- inhibition [1]: 17%
- inhibition [2]: 3%
- Activity (MDA-MB-361 [3]): Active
- inhibition [4]: 6%
- inhibition [5]: 4%
- inhibition [6]: -1%
- IC50 [7]: > 10 µM
- inhibition [8]: 1%
- inhibition (mTORC1 (Homo sapiens)): Active
- Activity (U-87 MG [9]): Active
- inhibition [10]: 2%
- Activity (MDA-MB-361 [11]): Active
- inhibition [12]: -1%
- inhibition [13]: 11%
- Activity (PC3MM2): inactive
- inhibition [14]: 5%
- inhibition [15]: 9%
- inhibition [16]: 7%
- inhibition [17]: 1%
- inhibition [18]: 12%
- inhibition [19]: 0%
- Activity (MDA-MB-361 [20]): Active
- IC50 (U-87 MG [21]): 0.065 µM
- inhibition [22]: 0%
- inhibition (A549): Dose-Dependent Effect
- IC50 (MDA-MB-361 [23]): 20 µM
